According to ChEMBL document CHEMBL5050845, “Enhancers of neurolysin activity” (2020):
Active and inactive are the calls of the source. The calls are words filed in the database; no cut-off is given here. Peptide text beside a SMILES is read from it. * marks the point of attachment. NHPhenethyl = c1ccc(CCN*)cc1; Boc = CC(C)(C)OC(=O)*

Legend:
Rattus norvegicus [1] = organism: Rattus norvegicus; test: Positive allosteric modulation of recombinant N-terminal poly-His tagged rat neurolysin using Mca-Pro-Leu- Gly-Pro-D-Lys(DNP)-OH as substrate assessed as Amax and measured by fluorescence based assay relative to control
Rattus norvegicus [2] = organism: Rattus norvegicus; test: Positive allosteric modulation of recombinant N-terminal poly-His tagged rat neurolysin using Mca-Pro-Leu- Gly-Pro-D-Lys(DNP)-OH as substrate and measured by fluorescence based assay
Rattus norvegicus [3] = organism: Rattus norvegicus; test: Positive allosteric modulation of catalytic activity of recombinant N-terminal poly-His tagged rat neurolysin at 40 uM assessed as Vmax as fluorescent unit/ng protein and measured fluorescence assay; details: filed as positive allosteric modulator
[4] = target: Angiotensin-converting enzyme (Homo sapiens) (UniProt P12821); test: Inhibition of recombinant C-terminal 10His-tagged human ACE at 300 uM using Mca-Arg-Pro-Pro-Gly-Phe-Ser-Ala-Phe-Lys(Dnp)-OH as substrate and measured by fluorescence based assay relative to control
Sequence of Angiotensin-converting enzyme (Homo sapiens) (P12821 whole entry): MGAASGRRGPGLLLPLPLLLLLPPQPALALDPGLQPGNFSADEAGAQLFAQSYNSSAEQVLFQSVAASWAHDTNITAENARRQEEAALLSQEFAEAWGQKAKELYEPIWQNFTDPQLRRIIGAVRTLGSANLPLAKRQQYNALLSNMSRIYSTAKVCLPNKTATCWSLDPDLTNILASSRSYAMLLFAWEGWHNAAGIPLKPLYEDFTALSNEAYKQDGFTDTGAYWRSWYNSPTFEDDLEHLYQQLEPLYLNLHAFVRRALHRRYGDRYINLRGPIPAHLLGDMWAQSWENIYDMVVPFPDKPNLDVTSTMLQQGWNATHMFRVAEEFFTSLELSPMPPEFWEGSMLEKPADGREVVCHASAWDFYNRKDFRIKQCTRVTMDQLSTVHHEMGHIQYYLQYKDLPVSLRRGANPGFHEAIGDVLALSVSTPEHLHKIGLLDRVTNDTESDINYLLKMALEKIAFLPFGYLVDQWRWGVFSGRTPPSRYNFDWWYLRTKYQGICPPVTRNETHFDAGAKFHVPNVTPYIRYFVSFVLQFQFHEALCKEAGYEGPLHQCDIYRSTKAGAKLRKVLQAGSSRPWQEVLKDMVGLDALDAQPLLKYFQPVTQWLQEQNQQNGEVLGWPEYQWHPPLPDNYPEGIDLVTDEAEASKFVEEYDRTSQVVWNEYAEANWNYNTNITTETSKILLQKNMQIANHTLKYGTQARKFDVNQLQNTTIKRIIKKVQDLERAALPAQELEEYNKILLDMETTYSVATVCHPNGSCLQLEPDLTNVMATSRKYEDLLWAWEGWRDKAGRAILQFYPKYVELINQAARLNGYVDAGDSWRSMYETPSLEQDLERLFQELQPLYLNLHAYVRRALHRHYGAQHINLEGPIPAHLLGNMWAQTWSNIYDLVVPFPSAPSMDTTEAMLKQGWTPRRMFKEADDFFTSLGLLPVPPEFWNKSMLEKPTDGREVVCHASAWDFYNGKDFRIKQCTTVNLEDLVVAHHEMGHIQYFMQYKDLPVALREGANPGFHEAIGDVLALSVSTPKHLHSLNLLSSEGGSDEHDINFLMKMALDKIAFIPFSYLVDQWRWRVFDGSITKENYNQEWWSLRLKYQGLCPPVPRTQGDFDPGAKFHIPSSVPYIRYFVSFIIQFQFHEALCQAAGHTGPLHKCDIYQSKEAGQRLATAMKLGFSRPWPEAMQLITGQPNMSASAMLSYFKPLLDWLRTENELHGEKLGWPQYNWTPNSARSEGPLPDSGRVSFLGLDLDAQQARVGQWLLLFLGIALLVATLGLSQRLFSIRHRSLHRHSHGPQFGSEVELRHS

[5] = target: Neprilysin (Homo sapiens) (UniProt P08473); test: Inhibition of recombinant N-terminal 6His-tagged human neprilysin expressed in CHO cells at 300 uM using Mca-Arg-Pro-Pro-Gly-Phe-Ser-Ala-Phe-Lys(Dnp)-OH as substrate and measured by fluorescence based assay relative to control
Sequence of Neprilysin (Homo sapiens) (P08473 whole entry): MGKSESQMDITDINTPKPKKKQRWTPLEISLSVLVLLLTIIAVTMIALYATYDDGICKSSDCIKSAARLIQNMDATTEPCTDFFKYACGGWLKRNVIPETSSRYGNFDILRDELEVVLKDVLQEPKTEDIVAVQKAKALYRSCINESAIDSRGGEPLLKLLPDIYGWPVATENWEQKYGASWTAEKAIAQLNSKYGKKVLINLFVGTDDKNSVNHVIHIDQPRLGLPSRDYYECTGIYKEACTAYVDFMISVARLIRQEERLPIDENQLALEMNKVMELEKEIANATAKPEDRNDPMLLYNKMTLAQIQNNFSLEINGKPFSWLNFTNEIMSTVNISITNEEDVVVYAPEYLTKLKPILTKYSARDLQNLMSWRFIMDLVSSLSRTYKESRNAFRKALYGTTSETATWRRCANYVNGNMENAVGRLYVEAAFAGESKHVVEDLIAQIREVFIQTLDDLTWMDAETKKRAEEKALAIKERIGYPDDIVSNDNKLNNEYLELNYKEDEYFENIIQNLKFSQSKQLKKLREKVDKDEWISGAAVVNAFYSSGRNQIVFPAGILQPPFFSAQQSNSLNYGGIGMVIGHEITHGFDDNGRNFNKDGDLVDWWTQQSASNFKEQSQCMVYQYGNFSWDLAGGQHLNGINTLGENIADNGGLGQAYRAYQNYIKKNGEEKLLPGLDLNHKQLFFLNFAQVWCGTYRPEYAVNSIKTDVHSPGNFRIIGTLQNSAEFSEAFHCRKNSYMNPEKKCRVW

Mus musculus = organism: Mus musculus; test: Positive allosteric modulation of neurolysin in mouse brain using Mca-Pro-Leu- Gly-Pro-D-Lys(DNP)-OH as substrate and measured by fluorescence based assay relative to control; assay type: tissue-based; details: filed as positive allosteric modulator
[6] = target: Angiotensin-converting enzyme 2 (Homo sapiens) (UniProt Q9BYF1); test: Inhibition of recombinant N-terminal Met and His-tagged human ACE2 at 300 uM using Mca-Ala-Pro-Lys-(Dnp)-OH as substrate and measured by fluorescence based assay relative to control
Sequence of Angiotensin-converting enzyme 2 (Homo sapiens) (Q9BYF1 18-805 limits assumed): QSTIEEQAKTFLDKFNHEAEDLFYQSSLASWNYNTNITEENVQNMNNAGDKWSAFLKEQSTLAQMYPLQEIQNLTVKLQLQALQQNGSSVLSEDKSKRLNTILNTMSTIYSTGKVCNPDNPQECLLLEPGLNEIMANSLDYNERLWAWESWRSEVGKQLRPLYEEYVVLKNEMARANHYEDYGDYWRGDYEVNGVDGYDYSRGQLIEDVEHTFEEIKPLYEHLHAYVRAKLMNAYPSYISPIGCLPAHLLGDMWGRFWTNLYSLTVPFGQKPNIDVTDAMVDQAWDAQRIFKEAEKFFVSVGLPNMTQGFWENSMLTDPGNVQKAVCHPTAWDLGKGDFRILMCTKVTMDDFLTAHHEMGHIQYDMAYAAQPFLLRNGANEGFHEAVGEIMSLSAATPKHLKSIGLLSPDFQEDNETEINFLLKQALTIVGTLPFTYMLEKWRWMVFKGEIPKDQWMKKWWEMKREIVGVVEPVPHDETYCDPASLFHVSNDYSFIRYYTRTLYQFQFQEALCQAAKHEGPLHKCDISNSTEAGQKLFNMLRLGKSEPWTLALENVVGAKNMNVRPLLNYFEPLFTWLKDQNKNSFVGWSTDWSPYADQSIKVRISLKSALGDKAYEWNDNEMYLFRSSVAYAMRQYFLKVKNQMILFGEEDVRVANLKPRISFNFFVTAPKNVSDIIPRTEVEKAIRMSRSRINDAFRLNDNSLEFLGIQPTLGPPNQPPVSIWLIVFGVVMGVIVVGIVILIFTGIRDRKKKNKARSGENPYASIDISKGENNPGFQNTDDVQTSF

Rattus norvegicus [7] = organism: Rattus norvegicus; test: Positive allosteric modulation of catalytic activity of recombinant N-terminal poly-His tagged rat neurolysin at 100 uM assessed as Km measured fluorescence assay; details: filed as positive allosteric modulator
Rattus norvegicus [8] = organism: Rattus norvegicus; test: Positive allosteric modulation of recombinant N-terminal poly-His tagged rat neurolysin at 100 uM assessed fold increase in formation of bradykinin (1 to 5) from bradykinin and measured by mass spectrometry analysis; details: filed as positive allosteric modulator
Rattus norvegicus [9] = organism: Rattus norvegicus; test: Positive allosteric modulation of recombinant N-terminal poly-His tagged rat neurolysin at 100 uM assessed fold increase in formation of angiotensin (1 to 7) from angiotensin I and measured by mass spectrometry analysis; details: filed as positive allosteric modulator
Rattus norvegicus [10] = organism: Rattus norvegicus; test: Positive allosteric modulation of recombinant N-terminal poly-His tagged rat neurolysin at 100 uM assessed fold increase in formation of neurotensin (1 to 10) from neurotensin and measured by mass spectrometry analysis; details: filed as positive allosteric modulator
Rattus norvegicus [11] = organism: Rattus norvegicus; test: Positive allosteric modulation of catalytic activity of recombinant N-terminal poly-His tagged rat neurolysin using Mca-Pro-Leu- Gly-Pro-D-Lys(DNP)-OH as substrate and measured by fluorescence based assay relative to control; details: filed as positive allosteric modulator
Homo sapiens [12] = organism: Homo sapiens; test: Inhibition of recombinant N-terminal Met and His-tagged human Thimet oligopeptidase at 300 uM using Mca-Pro-Leu-Gly-Pro-D-Lys(DNP)-OH as substrate and measured by fluorescence based assay relative to control
Rattus norvegicus [13] = organism: Rattus norvegicus; test: Positive allosteric modulation of catalytic activity of recombinant N-terminal poly-His tagged rat neurolysin at 100 uM assessed as Vmax as fluorescent unit/ng protein measured fluorescence assay; details: filed as positive allosteric modulator
Rattus norvegicus [14] = organism: Rattus norvegicus; test: Positive allosteric modulation of catalytic activity of recombinant N-terminal poly-His tagged rat neurolysin using Mca-Pro-Leu- Gly-Pro-D-Lys(DNP)-OH as substrate in presence of 1 uM dynoprhin A (1 to 13) and measured by fluorescence based assay relative to control; details: filed as positive allosteric modulator
Rattus norvegicus [15] = organism: Rattus norvegicus; test: Positive allosteric modulation of catalytic activity of recombinant N-terminal poly-His tagged rat neurolysin assessed as effect on fluorescence signal of Mca-Pro-Leu-OH and measured fluorescence assay
Rattus norvegicus [16] = organism: Rattus norvegicus; test: Positive allosteric modulation of catalytic activity of recombinant N-terminal poly-His tagged rat neurolysin at 40 uM assessed as Km measured fluorescence assay; details: filed as positive allosteric modulator
Homo sapiens [17] = organism: Homo sapiens; test: Positive allosteric modulation of recombinant N-terminal Met and His-tagged human neurolysin using Mca-Pro-Leu- Gly-Pro-D-Lys(DNP)-OH as substrate and measured by fluorescence based assay relative to control; details: filed as positive allosteric modulator
[18] = Inhibition of recombinant N-terminal poly-His tagged rat neurolysin using Mca-Pro-Leu- Gly-Pro-D-Lys(DNP)-OH as substrate in presence of 100 uM NSC 523374 and measured by fluorescence based assay relative to control
[19] = Inhibition of recombinant N-terminal poly-His tagged rat neurolysin using Mca-Pro-Leu- Gly-Pro-D-Lys(DNP)-OH as substrate in presence of 100 uM NSC 374121 and measured by fluorescence based assay relative to control
[20] = filed as positive allosteric modulator

N[C@H](Cc1c[nH]cn1)C(=O)NCCc1ccccc1
Emax (Rattus norvegicus [1]; [20]): 407%

N[C@@H](Cc1c[nH]cn1)C(=O)NCc1cccc2ccccc12
Emax (Rattus norvegicus [1]; [20]): 264%

CC(C)(C)OC(=O)N[C@@H](Cc1c[nH]cn1)C(=O)NCCc1c[nH]c2ccccc12
A50 (Rattus norvegicus [2]): inactive | Emax (Rattus norvegicus [1]): inactive

N[C@@H](Cc1c[nH]cn1)C(=O)N1CCCC1
Emax (Rattus norvegicus [1]; [20]): 173%

N[C@@H](Cc1c[nH]cn1)C(=O)NCc1ccc(F)cc1
Emax (Rattus norvegicus [1]; [20]): 252%

N[C@@H](Cc1cnc[nH]1)C(=O)N[C@@H](Cc1ccccc1)C(=O)O (H-His-Phe-OH)
A50 (Rattus norvegicus [2]; [20]): 130 µM | Emax (Rattus norvegicus [1]; [20]): 573%

O=C(CCc1cnc[nH]1)NCCc1c[nH]c2ccccc12
A50 (Rattus norvegicus [2]): inactive | Emax (Rattus norvegicus [1]): inactive

COc1ccccc1CNC(=O)[C@H](N)Cc1c[nH]cn1
Emax (Rattus norvegicus [1]; [20]): 325%

COc1ccc(CNC(=O)[C@@H](N)Cc2c[nH]cn2)cc1
Emax (Rattus norvegicus [1]; [20]): 429%

N[C@H](Cc1c[nH]cn1)C(=O)NCCc1ccc(C(F)(F)F)cc1
Emax (Rattus norvegicus [1]; [20]): 643%

N[C@@H](Cc1c[nH]cn1)C(=O)NCc1ccc(C(F)(F)F)cc1
Emax (Rattus norvegicus [1]; [20]): 305%

COc1ccc(CCNC(=O)[C@@H](N)Cc2c[nH]cn2)cc1
Emax (Rattus norvegicus [1]; [20]): 544%

N[C@@H](Cc1c[nH]cn1)C(=O)NCCc1ccc(F)cc1
A50 (Rattus norvegicus [2]; [20]): 27.9 µM | Emax (Rattus norvegicus [1]; [20]): 323%

COc1ccc(CNC(=O)[C@H](N)Cc2cnc[nH]2)cc1
Emax (Rattus norvegicus [1]; [20]): 704%

N[C@@H](Cc1c[nH]cn1)C(=O)NCc1ccccc1
Emax (Rattus norvegicus [1]; [20]): 152%

N[C@H](Cc1c[nH]cn1)C(=O)NCCc1ccc2ccccc2c1
Emax (Rattus norvegicus [1]; [20]): 340%

COc1cccc(CNC(=O)[C@H](N)Cc2cnc[nH]2)c1
Emax (Rattus norvegicus [1]; [20]): 477%

NC(Cc1c[nH]cn1)C(=O)NC(Cc1ccc(O)cc1)C(=O)O (stereo not drawn) (H-His-Tyr-OH; configuration not given here)
Vmax (Rattus norvegicus [3]): 124 min⁻¹ | inhibition [4]: 22.6% | inhibition [5]: 2.9% | Emax (Mus musculus): 190% | inhibition [6]: 13.4% | Km (Rattus norvegicus [7]): 6.4 µM | fold change (FC) (Rattus norvegicus [8]): 2 | fold change (FC) (Rattus norvegicus [9]): 6 | fold change (FC) (Rattus norvegicus [10]): 3 | Emax (Rattus norvegicus [11]): 235% | inhibition (Homo sapiens [12]): 25.9% | Vmax (Rattus norvegicus [13]): 165 min⁻¹ | Emax (Rattus norvegicus [14]): 238% | Activity (Rattus norvegicus [15]): inactive | Km (Rattus norvegicus [16]): 7.9 µM | Emax (Homo sapiens [17]): 204%

N[C@H](Cc1c[nH]cn1)C(=O)NCc1cccc2ccccc12
Emax (Rattus norvegicus [1]; [20]): 343%

CC(C)(C)OC(=O)N[C@@H](Cc1c[nH]cn1)C(=O)NCCc1ccccc1
A50 (Rattus norvegicus [2]): inactive | Emax (Rattus norvegicus [1]): inactive

CC[C@H](C)[C@H](NC(=O)[C@H](CCCNC(=N)N)NC(=O)[C@H](CCCNC(=N)N)NC(=O)[C@H](CC(C)C)NC(=O)[C@H](Cc1ccccc1)NC(=O)CNC(=O)CNC(=O)[C@@H](N)Cc1ccc(O)cc1)C(=O)N[C@@H](CCCNC(=N)N)C(=O)N1CCC[C@H]1C(=O)N[C@@H](CCCCN)C(=O)N[C@@H](CC(C)C)C(=O)N[C@@H](CCCCN)C(=O)O [ANALOG OF DYNORPHIN A]
Ki [18]: 600 nM | Ki [19]: 700 nM

N[C@H](Cc1c[nH]cn1)C(=O)NCc1ccc(C(F)(F)F)cc1
Emax (Rattus norvegicus [1]; [20]): 599%

N[C@@H](Cc1c[nH]cn1)C(=O)Nc1ccccc1
A50 (Rattus norvegicus [2]; [20]): 7.74 µM | Emax (Rattus norvegicus [1]; [20]): 140%

N[C@@H](Cc1cnc[nH]1)C(=O)N[C@@H](Cc1ccc(O)cc1)C(=O)O (H-His-Tyr-OH)
Emax (Rattus norvegicus [1]; [20]): 467%

CC(C)(C)OC(=O)N[C@@H](Cc1c[nH]cn1)C(=O)NCCc1cc2ccccc2[nH]1
A50 (Rattus norvegicus [2]): inactive | Emax (Rattus norvegicus [1]): inactive

O=C1NC(Cc2c[nH]cn2)C(=O)N2CCCC12 (stereo not drawn)
A50 (Rattus norvegicus [2]): inactive | Emax (Rattus norvegicus [1]): inactive

N[C@@H](Cc1c[nH]cn1)C(=O)NCc1cccc(C(F)(F)F)c1
Emax (Rattus norvegicus [1]; [20]): 494%

N[C@@H](Cc1c[nH]cn1)C(=O)NCCc1ccc(C(F)(F)F)cc1
Emax (Rattus norvegicus [1]; [20]): 438%

N[C@@H](Cc1c[nH]cn1)C(=O)NCc1ccc2ccccc2c1
A50 (Rattus norvegicus [2]; [20]): 12.3 µM | Emax (Rattus norvegicus [1]; [20]): 262%

N[C@@H](Cc1c[nH]cn1)C(=O)NCCc1ccc2ccccc2c1
Emax (Rattus norvegicus [1]; [20]): 324%

N[C@H](Cc1c[nH]cn1)C(=O)NCCc1ccccc1C(F)(F)F
Emax (Rattus norvegicus [1]; [20]): 396%

COc1cccc(CCNC(=O)[C@H](N)Cc2c[nH]cn2)c1
Emax (Rattus norvegicus [1]; [20]): 255%

N[C@@H](Cc1c[nH]cn1)C(=O)NCCc1cc2ccccc2[nH]1
Emax (Rattus norvegicus [1]; [20]): 259%

N[C@@H](Cc1c[nH]cn1)C(=O)NCCc1ccccc1
Emax (Rattus norvegicus [1]; [20]): 231%

NC(Cc1c[nH]cn1)C(=O)NCCc1cc2ccccc2[nH]1 (racemic)
Emax (Rattus norvegicus [1]; [20]): 311%

CC(C)(C)OC(=O)N[C@@H](Cc1c[nH]cn1)C(=O)N[C@@H](Cc1ccccc1)C(=O)O (Boc-His-Phe-OH)
A50 (Rattus norvegicus [2]): inactive | Emax (Rattus norvegicus [1]): inactive

N[C@@H](Cc1c[nH]cn1)C(=O)NCc1ccccc1C(F)(F)F
Emax (Rattus norvegicus [1]; [20]): 334%

NC(Cc1c[nH]cn1)C(=O)NC(Cc1c[nH]cn1)C(=O)O (stereo not drawn)
Vmax (Rattus norvegicus [3]): 112 min⁻¹ | inhibition [4]: 12.2% | inhibition [5]: 1.6% | Emax (Mus musculus): 258% | inhibition [6]: 10.9% | Km (Rattus norvegicus [7]): 6.1 µM | Emax (Rattus norvegicus [11]): 203% | inhibition (Homo sapiens [12]): 15.6% | Vmax (Rattus norvegicus [13]): 148 min⁻¹ | Emax (Rattus norvegicus [14]): 198% | Activity (Rattus norvegicus [15]): inactive | Km (Rattus norvegicus [16]): 8 µM | Emax (Homo sapiens [17]): 214%

N[C@H](Cc1c[nH]cn1)C(=O)NCCc1cc2ccccc2[nH]1
Emax (Rattus norvegicus [1]; [20]): 132%

N[C@@H](Cc1ccccn1)C(=O)NCCc1ccccc1
A50 (Rattus norvegicus [2]): inactive | Emax (Rattus norvegicus [1]): inactive

N[C@@H](Cc1c[nH]cn1)C(=O)N[C@H](Cc1cc2ccccc2[nH]1)C(=O)O
Emax (Rattus norvegicus [1]; [20]): 440%

N[C@H](Cc1cnc[nH]1)C(=O)NCc1cccc(C(F)(F)F)c1
Emax (Rattus norvegicus [1]; [20]): 184%

N[C@@H](Cc1c[nH]cn1)C(=O)N[C@@H](Cc1ccccc1)C(=O)NCCc1ccccc1 (H-His-Phe-NHPhenethyl)
A50 (Rattus norvegicus [2]; [20]): 5.4 µM | Emax (Rattus norvegicus [1]; [20]): 178%
